One assay addresses T1, human GIP receptor (Homo sapiens, UniProt P48546).
T1 construct: expressed in transfected cells; host or cells: PSC-HEK-293
T1 sequence (P48546 22-466): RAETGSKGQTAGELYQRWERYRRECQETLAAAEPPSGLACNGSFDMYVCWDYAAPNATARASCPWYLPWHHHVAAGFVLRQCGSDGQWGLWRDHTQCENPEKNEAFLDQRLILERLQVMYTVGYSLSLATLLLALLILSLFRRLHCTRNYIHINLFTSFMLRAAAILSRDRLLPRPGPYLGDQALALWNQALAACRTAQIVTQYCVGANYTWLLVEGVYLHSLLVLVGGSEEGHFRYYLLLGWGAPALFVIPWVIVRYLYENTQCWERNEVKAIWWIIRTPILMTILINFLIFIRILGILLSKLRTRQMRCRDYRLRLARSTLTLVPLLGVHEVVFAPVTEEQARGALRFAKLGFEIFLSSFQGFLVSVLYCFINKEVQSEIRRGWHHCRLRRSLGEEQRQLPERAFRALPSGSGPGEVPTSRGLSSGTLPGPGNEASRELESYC
In words: HTRF cAMP assay in HEK-293 cells expressing human GIP receptor. Format: cell-based. The settings on record: HEK-293 cells; read-out: HTRF cAMP EC50 Human GIPR. The procedure:
(§1) Each vial contained 1.8 ml cells. The vials were slowly frozen to −80° C. in isopropanol, and then transferred in liquid nitrogen for storage.
(§2) Cells were resuspended in assay buffer (cell buffer plus 2 mM IBMX) and adjusted to a cell density of 1 million cells/ml.
(§3) For measurement of cAMP generation, 5 μl cells (final 5000 cells/well) and 5 μl of test compound were added to a 384-well plate, followed by incubation for 30 min at room temperature.
(§4) The cAMP generated was determined using a kit from Cisbio Corp. based on HTRF (Homogenous Time Resolved Fluorescence). The cAMP assay was performed according to manufacturer's instructions (Cisbio).

Assay [1] deals with T2, human glucagon (GCG) receptor (Homo sapiens, UniProt P47871).
T2 construct: expressed in transfected cells; host or cells: PSC-HEK-293
T2 sequence (P47871 26-477): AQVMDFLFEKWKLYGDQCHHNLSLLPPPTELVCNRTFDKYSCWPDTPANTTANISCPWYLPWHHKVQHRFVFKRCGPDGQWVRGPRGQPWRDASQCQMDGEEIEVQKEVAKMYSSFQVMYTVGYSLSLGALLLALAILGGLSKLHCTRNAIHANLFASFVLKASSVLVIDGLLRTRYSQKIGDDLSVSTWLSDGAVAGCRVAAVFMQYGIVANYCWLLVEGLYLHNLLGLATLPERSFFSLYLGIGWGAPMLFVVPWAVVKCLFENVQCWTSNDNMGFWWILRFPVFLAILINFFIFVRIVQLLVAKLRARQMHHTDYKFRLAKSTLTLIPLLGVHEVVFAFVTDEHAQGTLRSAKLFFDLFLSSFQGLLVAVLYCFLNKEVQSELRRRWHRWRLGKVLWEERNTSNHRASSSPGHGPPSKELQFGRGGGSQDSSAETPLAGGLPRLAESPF
In words: HTRF cAMP assay in HEK-293 cells expressing human glucagon receptor. Particulars: HEK-293 cells; read-out: HTRF cAMP EC50 Human GCGR. Type of assay: cell-based. The procedure: as §1, §2, §3, §4

A short description of assay [2]: SAR16 (16H7) standalone and in combination with dulaglutide in DIO NASH cynomolgus monkeys. Format: in vivo, Cynomolgus monkey (Macaca fascicularis). The procedure:
Both were tested as single administration and in combination of both in the most relevant animal model that reflects the intended human population. Thus, the pharmacokinetic and pharmacodynamics of varying doses of the compounds were explored in the high-fat diet-induced obese and insulin resistance cynomolgus monkey model with diagnosed non-alcoholic steatohepatitis (NASH), mimicking the adult human NASH insulin resistance phenotype.
Cynomolgus monkey (Macaca fascicularis) was selected as the test species of choice for more meaningful results that were translatable to humans. More than 50 male monkeys were trained to identify 40 HFD induced obese NASH monkeys for the study.
There was a run-in period during which monkeys were injected subcutaneously with vehicle every third day. Food intake (calculated as TEI) and water intake were measured daily along with twice-weekly body weight evaluation and baseline value determination for metabolic biomarkers, safety biomarkers, IV glucose tolerance test (IVGTT), liver biopsy for gene expression analysis, and profile for glucose, insulin, and plasma lipids.
For the dosing period 40 trained monkeys (n=10 per group) were selected and stratified for body weight, fasting plasma glucose (FPG), and fasting plasma insulin (FPI) and insulin response from baseline during the IVGTT. All treatments were administered subcutaneously for […]. The dosing period was designed as a four-arm, dose-ramping study, and monkeys were treated with either vehicle, SAR10, SAR16, or a combination of both SAR10 and SAR16.
The SAR10-treated monkeys were dosed every 3rd day at 60 μg/kg initiated by dose ramping (3 dose steps, week 1: 20 μg/kg, week 2: 40 μg/kg, week 3 to runout: 60 μg/kg). The SAR16-treated monkeys were dosed at 1 mg/kg on day +1, 3 mg/kg on day +16, and then repeat maintenance dose of 3 mg/kg on day +46. The Combo-treated monkey were dosed with both SAR10 and SAR16 as the same pattern of the SAR10 and SAR16 treated monkeys.
Other parameters were also measured during the study, including food intake, body fat, plasma ketone bodies, as well as blood glucose control (glucose profile, fed, fasting plasma glucose and during ivGTT). One group received the vehicle. The compounds were administered subcutaneously (SC) (12 weeks “evaluation phase” plus run-out) to obese and NASH male cynomolgus macaques (Macaca fascicularis).
The SAR10-treated monkeys were dosed every 3rd day at 60 μg/kg initiated by dose ramping (3 dose steps, week 1: 20 μg/kg, week 2: 40 μg/kg, week 3 to runout: 60 μg/kg). The SAR16-treated monkeys were dosed at 1 mg/kg on day +1, 3 mg/kg on day +16, and then repeat maintenance dose of 3 mg/kg on day +46. The Combo-treated monkey were dosed with both SAR10 and SAR16 at the same pattern of the SAR10 and SAR16 treated monkeys.

The mark [3] stands for this setting: compared to the vehicle treated group.
Where [4] appears, read: day +76 compared to baseline (day −27).

Bridge positions count the residues as written; N and C are the ends. Ends that are not written are not given here. Peptide text beside a SMILES is read from it.

As to “HGEGTFTSDLSILCEKRAVHEFIEWLKAGGPSSGKPPPKPGC-NH2 (disulfide 14-42) [Ab P034]”, the half-maximal effective concentration (EC50) was 0.257 nM at human GIP receptor and greater than 10 nM in assay [1].

For “HGEGTFTSDLSILCEKRAVHEFIEWLIAGGPSSGKPPPKPGC-NH2 (disulfide 14-42) [Ab P033]”, the figures for the EC50 (on human GIP receptor; in assay [1]) were 0.024 nM and greater than 10 nM, respectively.

`CC[C@H](C)[C@H](NC(=O)[C@H](CC(C)C)NC(=O)[C@H](Cc1c[nH]c2ccccc12)NC(=O)[C@H](CCC(=O)O)NC(=O)[C@@H](NC(=O)[C@H](Cc1ccccc1)NC(=O)[C@H](CCC(=O)O)NC(=O)[C@H](Cc1c[nH]cn1)NC(=O)[C@H](CCC(N)=O)NC(=O)[C@H](C)NC(=O)[C@H](CCCNC(=N)N)NC(=O)[C@H](CCCCN)NC(=O)[C@H](CCC(=O)O)NC(=O)[C@H](CC(C)C)NC(=O)[C@H](CC(C)C)NC(=O)[C@H](CCCCN)NC(=O)[C@H](CO)NC(=O)[C@H](CC(C)C)NC(=O)[C@H](CC(=O)O)NC(=O)[C@H](CO)NC(=O)[C@@H](NC(=O)[C@H](Cc1ccccc1)NC(=O)[C@@H](NC(=O)CNC(=O)[C@H](CCC(=O)O)NC(=O)CNC(=O)[C@@H](N)Cc1c[nH]cn1)[C@@H](C)O)[C@@H](C)O)[C@@H](C)CC)C(=O)N[C@@H](C)C(=O)NCC(=O)NCC(=O)N1CCC[C@H]1C(=O)N[C@@H](CO)C(=O)N[C@@H](CO)C(=O)NCC(=O)N[C@@H](CCCCN)C(=O)N1CCC[C@H]1C(=O)N1CCC[C@H]1C(=O)N1CCC[C@H]1C(=O)N[C@@H](CCCCN)C(N)=O` [Ab P028] (H-HGEGTFTSDLSKLLEKRAQHEFIEWLIAGGPSSGKPPPK-NH2; N-terminus assumed): the values for the 50% effective concentration (EC50) (at human GIP receptor; in assay [1]) were 0.39 nM and greater than 10 nM, respectively.

Regarding `CC[C@H](C)[C@H](NC(=O)[C@H](Cc1ccccc1)NC(=O)[C@H](CCC(=O)O)NC(=O)[C@H](Cc1c[nH]cn1)NC(=O)[C@H](CCC(N)=O)NC(=O)[C@H](C)NC(=O)[C@H](CCCNC(=N)N)NC(=O)[C@H](CCCCN)NC(=O)[C@H](CCC(=O)O)NC(=O)[C@H](CC(C)C)NC(=O)[C@H](CC(C)C)NC(=O)[C@H](CCC(=O)O)NC(=O)[C@H](CO)NC(=O)[C@H](CC(C)C)NC(=O)[C@H](CC(=O)O)NC(=O)[C@H](CO)NC(=O)[C@@H](NC(=O)[C@H](Cc1ccccc1)NC(=O)[C@@H](NC(=O)CNC(=O)[C@H](CCC(=O)O)NC(=O)CNC(=O)[C@@H](N)Cc1c[nH]cn1)[C@@H](C)O)[C@@H](C)O)C(=O)N[C@@H](CCC(=O)O)C(=O)N[C@@H](Cc1c[nH]c2ccccc12)C(=O)N[C@@H](CC(C)C)C(=O)N[C@@H](CCCCN)C(=O)N[C@@H](C)C(=O)NCC(=O)NCC(=O)N1CCC[C@H]1C(=O)N[C@@H](CO)C(=O)N[C@@H](CO)C(=O)NCC(=O)N[C@@H](CCCCN)C(=O)N1CCC[C@H]1C(=O)N1CCC[C@H]1C(=O)N1CCC[C@H]1C(=O)N[C@@H](CCCCN)C(N)=O` [Ab P032] (H-HGEGTFTSDLSELLEKRAQHEFIEWLKAGGPSSGKPPPK-NH2; N-terminus assumed), the EC50 on human GIP receptor is 2.37 nM; in assay [1], greater than 10 nM.

Consider dulaglutide [SAR10], for which, in assay [2] (DIO NASH cynomolgus monkeys), the “body weight (in words)” value is given as “Significant reductions in body weight” and the food intake result was “Reduction of food intake”. In addition, in assay [2] (setting [3]), the “fasting glucose and fed glucose levels (12:30 and 18:30)” value is reported as “No significant change”; the “ivGTT glucose AUC” value is “significantly decreased”; the “ivGTT plasma insulin AUC” value is “significant increase”. Also, in assay [2] (setting [4]), the “blood glucose levels, plasma profile” value is “appreciable decreases” and the “insulin, plasma profile” value is on record as “decreased”. Also, in assay [2] (day +76 versus day −27), the “HDL levels, plasma profile” value is reported as “slightly increased”; the “T-ketones levels, plasma profile” value is “quite stable”; the “TC and LDL levels, plasma profile” value is on record as “decreased”; the “TG values, plasma profile” value is recorded as “quite stable”. Further, in assay [2] (measured on days +81/+82/+83/+84, DIO NASH cynomolgus monkeys), the “liver fat fraction change (MRI)” value is −25.2%. Besides, the NASH steatosis score entry in assay [2] (more monkeys improved compared to vehicle treated group) is reported as “improved steatosis score”.

As to `CC[C@H](C)[C@H](NC(=O)[C@H](CC(C)C)NC(=O)[C@H](Cc1c[nH]c2ccccc12)NC(=O)[C@H](CCC(=O)O)NC(=O)[C@@H](NC(=O)[C@H](Cc1ccccc1)NC(=O)[C@H](CCC(=O)O)NC(=O)[C@H](Cc1c[nH]cn1)NC(=O)[C@H](CCC(N)=O)NC(=O)[C@H](C)NC(=O)[C@H](CCCNC(=N)N)NC(=O)[C@H](CCCCN)NC(=O)[C@H](CCC(=O)O)NC(=O)[C@H](CC(C)C)NC(=O)[C@H](CC(C)C)NC(=O)[C@H](CCC(=O)O)NC(=O)[C@H](CO)NC(=O)[C@H](CC(C)C)NC(=O)[C@H](CC(=O)O)NC(=O)[C@H](CO)NC(=O)[C@@H](NC(=O)[C@H](Cc1ccccc1)NC(=O)[C@@H](NC(=O)CNC(=O)[C@H](CCC(=O)O)NC(=O)CNC(=O)[C@@H](N)Cc1c[nH]cn1)[C@@H](C)O)[C@@H](C)O)[C@@H](C)CC)C(=O)N[C@@H](C)C(=O)NCC(=O)NCC(=O)N1CCC[C@H]1C(=O)N[C@@H](CO)C(=O)N[C@@H](CO)C(=O)NCC(=O)N[C@@H](CCCCN)C(=O)N1CCC[C@H]1C(=O)N1CCC[C@H]1C(=O)N1CCC[C@H]1C(=O)N[C@@H](CCCCN)C(N)=O` [Ab P031] (H-HGEGTFTSDLSELLEKRAQHEFIEWLIAGGPSSGKPPPK-NH2; N-terminus assumed), the 50% effective concentration (EC50) at human GIP receptor is 0.271 nM; in assay [1] it was greater than 10 nM.

For the compound `CC[C@H](C)[C@H](NC(=O)[C@H](Cc1ccccc1)NC(=O)[C@H](CCC(=O)O)NC(=O)[C@H](Cc1c[nH]cn1)NC(=O)[C@H](CCC(N)=O)NC(=O)[C@H](C)NC(=O)[C@H](CCCNC(=N)N)NC(=O)[C@H](CCCCN)NC(=O)[C@H](CCC(=O)O)NC(=O)[C@H](CC(C)C)NC(=O)[C@H](CC(C)C)NC(=O)[C@H](CCCCN)NC(=O)[C@H](CO)NC(=O)[C@H](CC(C)C)NC(=O)[C@H](CC(=O)O)NC(=O)[C@H](CO)NC(=O)[C@@H](NC(=O)[C@H](Cc1ccccc1)NC(=O)[C@@H](NC(=O)CNC(=O)[C@H](CCC(=O)O)NC(=O)CNC(=O)[C@@H](N)Cc1c[nH]cn1)[C@@H](C)O)[C@@H](C)O)C(=O)N[C@@H](CCC(=O)O)C(=O)N[C@@H](Cc1c[nH]c2ccccc12)C(=O)N[C@@H](CC(C)C)C(=O)N[C@@H](CCCCN)C(=O)N[C@@H](C)C(=O)NCC(=O)NCC(=O)N1CCC[C@H]1C(=O)N[C@@H](CO)C(=O)N[C@@H](CO)C(=O)NCC(=O)N[C@@H](CCCCN)C(=O)N1CCC[C@H]1C(=O)N1CCC[C@H]1C(=O)N1CCC[C@H]1C(=O)N[C@@H](CCCCN)C(N)=O` [Ab P030] (H-HGEGTFTSDLSKLLEKRAQHEFIEWLKAGGPSSGKPPPK-NH2; N-terminus assumed), the results for the concentration giving a half-maximal response (EC50) (at human GIP receptor; in assay [1]) were 2.76 nM and greater than 10 nM, respectively.

The EC50 is the concentration at which the effect is half-maximal.

The record behind these values is patent publication US20250115669A1, “FGFR1/KLB Targeting Agonistic Antigen-Binding Proteins and Conjugates Thereof with GLP-1R Agonistic Peptides” (SANOFI, priority 2020, published 2025).
